Tested on: MCF-7 cells
Assay: Epifluorescence microscopy, triple staining MDC / annexin V-FITC / propidium iodide
Format: cell-based, human
Details: Bp4eT 10 or 100 nM 72 h, rapamycin 1 nM 30 min
Method: Markers used to assess autophagy/apoptosis/necrosis in MCF-7 cells and changes of lysosomal and mitochondrial morphology were observed using an Eclipse Ti inverted epifluorescence microscope (Nikon, Tokyo, Japan), that was equipped with a cooled digital camera Zyla 5.5 sCMOS (Andor Technology, Belfast, UK), and NIS-Elements C 4.1 software (Laboratory Imaging, Prague, Czech Republic). The MCF-7 cells were seeded in 6-well plates with cover slips on the bottom at a density of 150,000 cells/well and incubated as described above in the presence or absence of 10 or 100 nM Bp4eT.
To assess the mechanism of cellular death after incubation with Bp4eT, triple staining with monodansyl cadaverine (MDC; 50 μM; λex = 390 nm; λem = 455 nm; Sigma-Aldrich), annexin V-FITC (5 μL/mL; λex = 495 nm; λem = 519 nm; Invitrogen, Carlsbad, CA, USA), and propidium iodide (5 μg/mL; λex = 560 nm; λem = 630 nm) was used. MDC is a marker of autophagosomes and lysosomes and results in blue fluorescence. As a positive control for autophagy, MCF-7 cells were incubated with 1 nM rapamycin (Sigma-Aldrich) for 30 min/37°C, which is an established inducer of autophagy. Annexin V has high affinity to phosphatidylserine, which is translocated to the surface of both early- and late-stage apoptotic cells. […]

CO[C@H]1C[C@@H]2CC[C@@H](C)[C@@](O)(O2)C(=O)C(=O)N2CCCC[C@H]2C(=O)O[C@H]([C@H](C)C[C@@H]2CC[C@@H](O)[C@H](OC)C2)CC(=O)[C@H](C)/C=C(\C)[C@@H](O)[C@@H](OC)C(=O)[C@H](C)C[C@H](C)/C=C/C=C/C=C/1C [rapamycin, reference compound]
Staining for autophagy/apoptosis/necrosis (MDC, annexin V-FITC, propidium iodide): enlarged cells with ample granular, cytoplasmic MDC staining

Source: article PMC4604124, “In Vitro Characterization of the Pharmacological Properties of the Anti-Cancer Chelator, Bp4eT, and Its Phase I Metabolites” (PLoS ONE, 2015)
